These results are taken from US7396844B1, “Benzamidine derivatives” (Ajinomoto Co., Inc., priority 1997, dated 2008).

The target of experiment [1] is T1, activated human blood coagulation factor X (Homo sapiens, UniProt P00742).
T1 construct: purchased Enzyme Research Co
The experiment is described as follows: Determination of activity of inhibiting the activated blood coagulation factor X. The class given is biochemical. To be noted: same manner as Example 93; for IC50: read-out: Activity of inhibiting activated blood coagulation factor X (pIC50) (converted). As for the experimental part:
130 μl of 100 mM Tris-HCl buffer adjusted to pH 8.4 was added to 10 μl of an aqueous solution of a compound to be tested. Then 10 μl of a 0.5 unit/ml solution of activated human blood coagulation factor X (a product of Enzyme Research Co.) in Tris-HCl buffer hydrochloride of pH 8.4 was added to the resultant mixture. After the incubation at room temperature for 10 minutes, 50 μl of a solution of N-benzoyl-L-isoleucyl-L-glutamyl-glycyl-L-arginyl-p-nitroanilide hydrochloride (a product of Peptide Institute, Inc.) adjusted to 0.8 mM with Tris-HCl buffer (pH 8.4) was added thereto. The absorbance was determined and then the initial reaction rate was determined. A control was prepared in the same manner as that described above except that the solution of the compound to be tested was replaced with 10 μl of Tris-HCl buffer adjusted to pH 8.4.

For experiment [2], the target named is T2, human thrombin (Homo sapiens, UniProt P00734).
T2 construct: human thrombin (a product of SIGMA Co.); purchased SIGMA Co
Description: Determination of thrombin-inhibiting activity. As to conditions: same manner as Example 94. The class given is biochemical. How it is done: 130 μl of 100 mM Tris-HCl buffer adjusted to pH 8.4 was added to 10 μl of an aqueous solution of a test compound. Then 10 μl of a solution of human thrombin (a product of SIGMA Co.) adjusted to 2 units/ml with Tris-HCl buffer of pH 8.4 was added to the resultant mixture. […] The absorbance was determined and then the initial reaction rate was determined. A control was prepared in the same manner as that described above except that the solution of the compound to be tested was replaced with 10 μl of tris hydrochloride buffer adjusted to pH 8.4.

Experiment [3] concerns blood plasma. The experiment is described as follows: Determination of blood anticoagulating activity by prothrombin time (PT). Also noted: key: -log of concentration doubling control PT. The class given is biochemical, human. How it is done:
The blood anticoagulating activity was determined by a prothrombin time (PT) determination method. The PT was determined as follows: The blood was taken from healthy people. […] The blood plasma was separated by the centrifugation. 5 μl of DMSO solution containing a test compound was added to 45 μl of the blood plasma. After the incubation at room temperature for 2 minutes, a test tube containing the blood plasma solution was placed in Sysmex CA-3000 fully automatic blood coagulation determination device (a product of Toa Medical Electronics Co., Ltd), and incubated at 37° C. for 3 minutes. […] PT was automatically determined with the device. A sample containing 5 μl of DMSO in place of the solution of the test compound was used as the control. The negative logarithm (PT2) of the concentration of the test compound which elongated PT of the control to the twice as long was determined, and employed as the index of the blood anticoagulating activity.

Setting [4] is: Table 3, read-out: Thrombin inhibiting activity (pIC50) (converted).
The mark [5] stands for this setting: Table 3, same manner as Example 184, negative logarithm of concentration doubling PT.
Where [6] appears, read: Table 2, read-out: Thrombin-inhibiting activity (pIC50) (converted).
[7] abbreviates: Table 2, negative logarithm of concentration that elongated PT of the control to twice as long, plasma of healthy people.

Where two headings read alike, the source gives them in different places.

T1 sequence (P00742 235-488 limits assumed): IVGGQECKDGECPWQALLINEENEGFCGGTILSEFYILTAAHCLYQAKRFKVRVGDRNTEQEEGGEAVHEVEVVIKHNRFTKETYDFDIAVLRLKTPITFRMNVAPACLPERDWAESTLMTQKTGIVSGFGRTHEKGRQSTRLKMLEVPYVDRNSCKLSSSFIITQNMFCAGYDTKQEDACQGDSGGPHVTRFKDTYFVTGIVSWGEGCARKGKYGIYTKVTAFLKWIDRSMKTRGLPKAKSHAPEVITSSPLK
T1 sequence (P00742 41-179 partner limits assumed): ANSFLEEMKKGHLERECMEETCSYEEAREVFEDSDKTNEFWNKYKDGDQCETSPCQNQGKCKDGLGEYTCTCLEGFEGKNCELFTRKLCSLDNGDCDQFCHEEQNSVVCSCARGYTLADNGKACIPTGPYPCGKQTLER

Turning to `N=C(N)c1ccc(CC(=O)C(=O)O)c(OC[C@@H](CC(=O)O)NC(=O)c2ccc(S(=O)(=O)N3CCCC3)cc2)c1.O=C(O)C(F)(F)F` [Compound of Ex. 195, (3R)-4-[5-amidino-2-(2-carboxy-2-oxoethyl)phenoxy]-3-[4-(pyrrolidine-1-sulfonyl)benzoylamino]butanoic acid trifluoroacetate], the IC50 was 31.6 nM in experiment [1] (Table 3) and 31600 nM in experiment [2] (setting [4]). For the same compound, the “Blood anticoagulating activity (PT2)” value in experiment [3] (setting [5]) turned out to be 5.9.
For `CC(=N)N1CCC(Oc2ccc(C(=O)N[C@@H](COc3cc(C(=N)N)ccc3CC(=O)C(=O)O)CC(=O)O)cc2)CC1.O=C(O)C(F)(F)F.O=C(O)C(F)(F)F` [Compound of Ex. 193, (3R)-4-[5-amidino-2-(2-carboxy-2-oxoethyl)phenoxy]-3-[4-(1-(1-iminoethyl)piperidyl-4-oxy)benzoylamino]butanoic acid bistrifluoroacetate], in experiment [1] (Table 3), the “Activity of inhibiting activated blood coagulation factor X (pIC50)” value turned out to be 7.9. Further, the “Thrombin inhibiting activity (pIC50)” value in experiment [2] (Table 3) was determined as 3.4. For the same compound, the “Blood anticoagulating activity (PT2)” value in experiment [3] (setting [5]) was 6.2.
As to `CC(=N)N1CCC(Oc2ccc(C[C@H](NS(=O)(=O)c3ccccc3)C(=O)Nc3cccc(C(=N)N)c3)cc2)CC1.O=C(O)C(F)(F)F.O=C(O)C(F)(F)F` [Compound of Ex. 178, (2S)—N-(3-amidinophenyl)-2-(benzenesulfonylamino)-3-[4-(1-acetimidoyl-4-piperidyloxy)phenyl]propionamide bistrifluoroacetate], the IC50 in experiment [1] (Table 2) was 501 nM; in experiment [2] (setting [6]), above 398000 nM. Moreover, the “Blood anticoagulating activity (PT2)” value in experiment [3] (setting [7]) was found to be 5.7.
Consider `N=C(N)c1ccc(C(=O)N[C@@H](COc2cccc(C(=N)N)c2)Cc2ccccc2)cc1.O=C(O)C(F)(F)F.O=C(O)C(F)(F)F` [Compound of Ex. 117, N-[(1R)-2-(3-amidinophenoxy)-1-benzylethyl]-4-amidinobenzamide bistrifluoroacetate], for which the values for the IC50 in experiment [1] (Table 2) and in experiment [2] (setting [6]) were 39.8 nM and 251000 nM, respectively. In experiment [3] (setting [7]), the “Blood anticoagulating activity (PT2)” value was 6.7.
As to `N=C(N)c1cccc(OC[C@H](Cc2ccc(OC3CCNCC3)cc2)NS(=O)(=O)c2ccc(C(=O)O)cc2)c1.O=C(O)C(F)(F)F.O=C(O)C(F)(F)F` [Compound of Ex. 167, 4-[(2S)-1-[4-(4-piperidyloxy)phenyl]-3-(3-amidinophenoxy)-2-propylsulfamoyl]benzoic acid bistrifluoroacetate], the IC50 in experiment [1] (Table 2) is 501 nM; in experiment [2] (setting [6]) it was 126000 nM. Moreover, the “Blood anticoagulating activity (PT2)” value in experiment [3] (setting [7]) came out at 5.
Turning to `CN(C)C(=O)c1ccc(C(=O)N[C@@H](COc2cc(C(=N)N)ccc2CC(=O)C(=O)O)CC(=O)O)cc1.O=C(O)C(F)(F)F` [Compound of Ex. 188, (3R)-4-[5-amidino-2-(2-carboxy-2-oxoethyl)phenoxy]-3-(4-dimethylcarbamoylbenzoylamino)butanoic acid trifluoroacetate], the values for the IC50 in experiment [1] (Table 3) and in experiment [2] (setting [4]) were 7.94 nM and 398000 nM, respectively. Further, in experiment [3] (setting [5]), the “Blood anticoagulating activity (PT2)” value came out at 5.7.
For the compound `CC(=N)N1CCC(Oc2ccc(C[C@@H](COc3cccc(C(=N)N)c3)NS(=O)(=O)c3ccccc3)cc2)CC1.O=C(O)C(F)(F)F.O=C(O)C(F)(F)F` [Compound of Ex. 158, 3-[(2S)-2-(benzenesulfonylamino)-3-[4-(1-acetimidoyl-4-piperidyloxy)phenyl]propoxy]benzamidine bistrifluoroacetate], the IC50 in experiment [1] (Table 2) was 158 nM; in experiment [2] (setting [6]), 50100 nM. In addition, the “Blood anticoagulating activity (PT2)” value in experiment [3] (setting [7]) came out at 6.2.
The corresponding values for `CC(=N)N1CCC(Oc2ccc(C[C@@H](CCc3cccc(C(=N)N)c3)NS(=O)(=O)c3ccccc3)cc2)CC1.O=C(O)C(F)(F)F.O=C(O)C(F)(F)F` [Compound of Ex. 175, 3-[(3R)-3-(benzenesulfonylamino)-4-[4-(1-acetimidoyl-4-piperidyloxy)phenyl]butyl]benzamidine bistrifluoroacetate] are 251 nM, 63100 nM and 5.9.
As for `CC(=N)N1CCC(Cc2ccc(C[C@@H](COc3cccc(C(=N)N)c3)NS(=O)(=O)c3ccccc3)cc2)CC1.O=C(O)C(F)(F)F.O=C(O)C(F)(F)F` [Compound of Ex. 165, 3-[(2S)-2-(benzenesulfonylamino)-3-[4-[(1-acetimidoyl-4-piperidyl)methyl]phenyl]propoxy]benzamidine bistrifluoroacetate], the IC50 is 200 nM in experiment [1] (Table 2) and 100000 nM in experiment [2] (setting [6]). Further, the “Blood anticoagulating activity (PT2)” value in experiment [3] (setting [7]) is reported as 6.
On to `N=C(N)c1ccc(CC(=O)C(=O)O)c(OC[C@@H](CC(=O)O)NC(=O)c2ccc(C(=O)N3CCCC3)cc2)c1.O=C(O)C(F)(F)F` [Compound of Ex. 191, (3R)-4-[5-amidino-2-(2-carboxy-2-oxoethyl)phenoxy]-3-[4-(pyrrolidine-1-carbonyl)benzoylamino]butanoic acid trifluoroacetate], for which the IC50 in experiment [1] (Table 3) was 3.98 nM; in experiment [2] (setting [4]), 200000 nM. The “Blood anticoagulating activity (PT2)” value in experiment [3] (setting [5]) is reported as 6.0.
Regarding `N=C(N)c1ccc(C(=O)N[C@@H](COc2cc(C(=N)N)ccc2CC(=O)C(=O)O)CC(=O)O)cc1.O=C(O)C(F)(F)F.O=C(O)C(F)(F)F` [Compound of Ex. 186, (3R)-3-(4-amidinobenzoylamino)-4-[5-amidino-2-(2-carboxy-2-oxoethyl)phenoxy]butanoic acid bistrifluoroacetate], the IC50 in experiment [1] (Table 3) was 20 nM; in experiment [2] (setting [4]) it was 251000 nM. Further, the “Blood anticoagulating activity (PT2)” value in experiment [3] (setting [5]) is on record as 5.9.
Consider `CC(=N)N1CCC(Oc2ccc(C[C@@H](COc3cccc(C(=N)N)c3)NS(=O)(=O)c3ccc(/C=C/C(=O)O)cc3)cc2)CC1.O=C(O)C(F)(F)F.O=C(O)C(F)(F)F` [Compound of Ex. 171, (2E)-3-[4-[(2S)-1-[4-(1-acetimidoyl-4-piperidyloxy)phenyl]-3-(3-amidinophenoxy)-2-propylsulfamoyl]phenyl]acrylic acid bistrifluoroacetate], for which the IC50 in experiment [1] (Table 2) was 100 nM; in experiment [2] (setting [6]), 39800 nM. For the same compound, the “Blood anticoagulating activity (PT2)” value in experiment [3] (setting [7]) amounted to 6.
Take `N=C(N)c1ccc(CC(=O)C(=O)O)c(OC[C@H](Cc2ccc(OC3CCNCC3)cc2)NS(=O)(=O)c2ccccc2)c1.O=C(O)C(F)(F)F.O=C(O)C(F)(F)F` [Compound of Ex. 180, 3-[4-amidino-2-[(2S)-2-(benzenesulfonylamino)-3-[4-(4-piperidyloxy)phenyl]propoxy]phenyl]-2-oxopropionic acid bistrifluoroacetate]: the IC50 in experiment [1] (Table 2) was 158 nM; in experiment [2] (setting [6]), 3160 nM. Moreover, in experiment [3] (setting [7]), the “Blood anticoagulating activity (PT2)” value is on record as 5.7.
